Experimental data as given in patent publication US6750239B2, “Pyrazole-derived kinase inhibitors and uses thereof” (Vertex Pharmaceuticals Incorporated, priority 2001, dated 2004).

target: activated ERK2 (Homo sapiens, UniProt P28482); assay: ERK2 inhibition spectrophotometric coupled-enzyme assay; type: biochemical; settings: activated ERK2 10 nM, 65 μM ATP, 30° C., pH 7.5; read-out: ERK2 Inhibitory Activity (Ki class)
Description: Compounds are assayed for the inhibition of ERK2 by a spectrophotometric coupled-enzyme assay (Fox et al (1998) Protein Sci 7, 2249). In this assay, a fixed concentration of activated ERK2 (10 nM) is incubated with various concentrations of the compound in DMSO (2.5%) for 10 min. at 30° C. in 0.1 M HEPES buffer, pH 7.5, containing 10 mM MgCl2, 2.5 mM phosphoenolpyruvate, 200 μM NADH, 150 μg/mL pyruvate kinase, 50 μg/mL lactate dehydrogenase, and 200 μM erktide peptide. The reaction is initiated by the addition of 65 μM ATP. The rate of decrease of absorbance at 340 nm is monitored, which indicates the extent of uninhibited enzyme present in the assay. The IC50 is evaluated from the rate data as a function of inhibitor concentration.
The compound numbers correspond to the compound numbers in Tables 1-3.

activated ERK2, sequence (P28482 whole entry): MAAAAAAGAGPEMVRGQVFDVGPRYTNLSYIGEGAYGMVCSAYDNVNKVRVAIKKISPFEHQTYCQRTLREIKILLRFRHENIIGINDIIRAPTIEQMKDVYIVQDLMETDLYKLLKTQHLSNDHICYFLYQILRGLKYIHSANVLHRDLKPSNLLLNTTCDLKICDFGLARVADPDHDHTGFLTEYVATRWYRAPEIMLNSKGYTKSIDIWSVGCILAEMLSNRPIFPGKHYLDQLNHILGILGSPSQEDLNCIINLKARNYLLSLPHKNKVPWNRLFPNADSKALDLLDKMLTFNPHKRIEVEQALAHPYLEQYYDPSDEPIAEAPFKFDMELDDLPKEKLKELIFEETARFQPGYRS

| Compound | Ki [nM] |
| --- | --- |
| 4-{4-[3-Chloro-4-(methanesulfonylamino-methyl)-phenyl]-1H-pyrazol-3-yl}-1H-pyrrole-2-carboxylic acid [1-(3-chloro-4-fluoro-phenyl)-2-hydroxy-ethyl]-amide [II-2] | < 1000 |
| CC(=O)NC(CO)C(=O)NCc1ccc(-c2c[nH]nc2-c2c[nH]c(C(=O)N[C@H](CO)c3ccc(F)c(Cl)c3)c2)cc1Cl (stereo in doubt) [II-20, 4-(4-{4-[(2-Acetylamino-3-hydroxy-propionylamino)-methyl]-3-chloro-phenyl}-1H-pyrazol-3-yl)-1H-pyrrole-2-carboxylic acid [1-(3-chloro-4-fluoro-phenyl)-2-hydroxy-ethyl]-amide] | < 1000 |
| CS(=O)(=O)CC(=O)NCc1ccc(-c2cn[nH]c2-c2c[nH]c(C(=O)N[C@H](CO)c3ccccc3)c2)cc1Cl [II-1] | < 1000 |
| O=C(CCO)NCc1ccc(-c2cn[nH]c2-c2c[nH]c(C(=O)N[C@H](CO)c3ccccc3)c2)cc1Cl [II-4] | < 1000 |
| CC(=O)NC(CCO)C(=O)NCc1ccc(-c2cn[nH]c2-c2c[nH]c(C(=O)NC(CO)c3ccc(F)c(Cl)c3)c2)cc1Cl (stereo not shown) [II-5] | < 1000 |
| C[S+]([O-])CC(=O)NCc1ccc(-c2cn[nH]c2-c2c[nH]c(C(=O)NC(CO)c3ccc(F)c(Cl)c3)c2)cc1Cl (stereo not shown) [II-6] | < 1000 |
| O=C(CCCO)NCc1ccc(-c2c[nH]nc2-c2c[nH]c(C(=O)NC(CO)c3ccc(F)c(Cl)c3)c2)cc1Cl (stereo not shown) [II-8, 4-(4-{3-Chloro-4-[(4-hydroxy-butyrylamino)-methyl]-phenyl}-1H-pyrazol-3-yl)-1H-pyrrole-2-carboxylic acid [1-(3-chloro-4-fluoro-phenyl)-2-hydroxy-ethyl]-amide] | < 1000 |
| CC(=O)N[C@@H](C)C(=O)NCc1ccc(-c2cn[nH]c2-c2c[nH]c(C(=O)NC(CO)c3ccc(F)c(Cl)c3)c2)cc1Cl (stereo partly shown) [II-10] | < 1000 |
| CC(=O)N[C@H](C)C(=O)NCc1ccc(-c2cn[nH]c2-c2c[nH]c(C(=O)NC(CO)c3ccc(F)c(Cl)c3)c2)cc1Cl (stereo partly shown) [II-11] | < 1000 |
| CC(=O)N[C@@H](CS)C(=O)NCc1ccc(-c2cn[nH]c2-c2c[nH]c(C(=O)NC(CO)c3ccc(F)c(Cl)c3)c2)cc1Cl (stereo partly shown) [II-12] | < 1000 |
| CN(C)CC(=O)NCc1ccc(-c2cn[nH]c2-c2c[nH]c(C(=O)NC(CO)c3ccc(F)c(Cl)c3)c2)cc1Cl (stereo not shown) [II-13] | < 1000 |
| CC(C)(C)OC(=O)N[C@@H](CO)C(=O)NCc1ccc(-c2cn[nH]c2-c2c[nH]c(C(=O)NC(CO)c3ccc(F)c(Cl)c3)c2)cc1Cl (stereo partly shown) [II-14] | < 1000 |
| N[C@@H](CO)C(=O)NCc1ccc(-c2cn[nH]c2-c2c[nH]c(C(=O)NC(CO)c3ccc(F)c(Cl)c3)c2)cc1Cl (stereo partly shown) [II-15] | < 1000 |
| CC(=O)NC(CC[S+](C)[O-])C(=O)NCc1ccc(-c2cn[nH]c2-c2c[nH]c(C(=O)NC(CO)c3ccc(F)c(Cl)c3)c2)cc1Cl (stereo not shown) [II-16] | < 1000 |
| CC(C)(C)OC(=O)N[C@H](CO)C(=O)NCc1ccc(-c2cn[nH]c2-c2c[nH]c(C(=O)NC(CO)c3ccc(F)c(Cl)c3)c2)cc1Cl (stereo partly shown) [II-17] | < 1000 |
| N[C@H](CO)C(=O)NCc1ccc(-c2cn[nH]c2-c2c[nH]c(C(=O)NC(CO)c3ccc(F)c(Cl)c3)c2)cc1Cl (stereo partly shown) [II-18] | < 1000 |
| CC(=O)NC(CO)C(=O)NCc1ccc(-c2cn[nH]c2-c2c[nH]c(C(=O)N[C@H](CO)c3cccc(Cl)c3)c2)cc1Cl (stereo partly shown) [II-19] | < 1000 |
| CCCCNCc1ccc(-c2cn[nH]c2-c2c[nH]c(C(=O)N[C@H](CO)c3ccc(F)c(Cl)c3)c2)cc1Cl [II-22] | < 1000 |
| CCCCN(CCCC)Cc1ccc(-c2cn[nH]c2-c2c[nH]c(C(=O)N[C@H](CO)c3ccc(F)c(Cl)c3)c2)cc1Cl [II-23] | < 1000 |
| CCCNCc1ccc(-c2cn[nH]c2-c2c[nH]c(C(=O)N[C@H](CO)c3ccc(F)c(Cl)c3)c2)cc1Cl [II-27] | < 1000 |
| CCCN(CCC)Cc1ccc(-c2cn[nH]c2-c2c[nH]c(C(=O)N[C@H](CO)c3ccc(F)c(Cl)c3)c2)cc1Cl [II-28] | < 1000 |
| CCOC(=O)CNCc1ccc(-c2c[nH]nc2-c2c[nH]c(C(=O)N[C@H](CO)c3ccc(F)c(Cl)c3)c2)cc1Cl [II-29] | < 1000 |
